According to the supplement of paper PMC10331698:
± gives the standard deviation of the averaged measurements.

What was measured:
Experiment in all cases: level (log10 ratio to DMSO vehicle control); higher = higher biomarker level / cell amount than vehicle control
[1] = compound: C=CC(=O)OCCC(F)(F)C(F)(F)C(F)(F)C(F)(F)C(F)(F)C(F)(F)C(F)(F)C(F)(F)F [8:2 Fluorotelomer acrylate]; settings: in DMSO
Protocol: (§1)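 BioMAP Diversity Plus panel of 12 human primary cell co-culture systems (3C, 4H, LPS, SAg, BT, BF4T, BE3C, CASM3C, HDF3CGF, KF3CT, MyoF, Mphg). Compounds were added 1 h before stimulation and left for 24 h (MyoF 48 h; BT 72 h for soluble read-outs or 6 d for IgG). Biomarkers were read by ELISA, cytotoxicity by SRB, PBMC viability and proliferation by Alamar Blue. Each well value was divided by the mean of 8 DMSO control wells on the same plate and log10 transformed; duplicate blinded samples were tested at 4 concentrations.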

[2] = compound: FC(F)(F)C(F)(F)C(F)(F)C(F)(F)CCI [1H,1H,2H,2H-Perfluorohexyl iodide]; settings: in DMSO
Protocol: as §1

[3] = compound: FC(F)(F)COC(OCC(F)(F)F)OCC(F)(F)F [tris(Trifluoroethoxy)methane]; settings: in DMSO
Protocol: as §1

[4] = compound: FC(F)(I)C(F)(F)C(F)(F)C(F)(F)C(F)(F)C(F)(F)I [1,6-Diiodoperfluorohexane]; settings: 6700 nM; in DMSO
Protocol: as §1

[5] = compound: O=C(CC(=O)C(F)(F)C(F)(F)C(F)(F)F)c1cccs1 [(Perfluorobutyryl)-2-thenoylmethane]; settings: in DMSO
Protocol: as §1

[6] = compound: O=C(Cl)C(F)(F)C(F)(F)C(F)(F)C(=O)Cl [Hexafluoroglutaryl chloride]; settings: in DMSO
Protocol: as §1

[7] = compound: OCC(F)(F)C(F)(F)C(F)(F)C(F)(F)C(F)(F)C(F)(F)F [6:1 Fluorotelomer alcohol]; settings: in DMSO
Protocol: as §1

| Test System | level (log10) ([1]; 6700 nM) | level (log10) ([1]; 20000 nM) | level (log10) ([1]; 60000 nM) | level (log10) ([2]; 6700 nM) | level (log10) ([2]; 20000 nM) | level (log10) ([2]; 60000 nM) | level (log10) ([3]; 6700 nM) | level (log10) ([3]; 20000 nM) | level (log10) ([3]; 60000 nM) | level (log10) [4] | level (log10) ([5]; 6700 nM) | level (log10) ([5]; 20000 nM) | level (log10) ([6]; 6700 nM) | level (log10) ([6]; 20000 nM) | level (log10) ([6]; 60000 nM) | level (log10) ([7]; 6700 nM) | level (log10) ([7]; 20000 nM) | level (log10) ([7]; 60000 nM) |
| --- | --- | --- | --- | --- | --- | --- | --- | --- | --- | --- | --- | --- | --- | --- | --- | --- | --- | --- |
| SAg:CD62E/E-Selectin | -0.0125 ± 0.00071 | 0.0205 ± 0.03 | -0.009 ± 0.025 | -0.0095 ± 0.005 | -0.014 ± 0.014 | -0.008 ± 0.018 | 0.004 ± 0.034 | -0.022 ± 0.025 | -0.0045 ± 0.026 | 0 | -0.164 ± 0.0092 | -0.113 ± 0.02 | -0.018 ± 0.03 | -0.024 ± 0.014 | -0.012 ± 0.0042 | 0.0085 ± 0.026 | -0.001 ± 0.0085 | 0 ± 0.025 |
| BT:sIL-2 | 0.051 ± 0.0042 | -0.061 ± 0.17 | -0.036 ± 0.13 | 0.0565 ± 0.029 | -0.0065 ± 0.0021 | -0.056 ± 0.057 | -0.0155 ± 0.016 | 0.0015 ± 0.021 | 0.029 ± 0.025 | -0.059 | 0.0385 ± 0.067 | -0.001 ± 0.0014 | -0.0205 ± 0.07 | -0.001 ± 0.1 | 0.0415 ± 0.066 | 0.0235 ± 0.028 | -0.012 ± 0.075 | -0.289 ± 0.081 |
| LPS:sPGE2 | -0.118 ± 0.005 | -0.102 ± 0.044 | -0.069 ± 0.03 | -0.004 ± 0.014 | -0.002 ± 0.017 | 0.0245 ± 0.03 | -0.0105 ± 0.022 | -0.0085 ± 0.0035 | 0.0185 ± 0.013 | -0.063 | -0.066 ± 0.052 | 0.0635 ± 0.0064 | -0.011 ± 0.018 | -0.0375 ± 0.026 | -0.056 ± 0.03 | -0.0055 ± 0.028 | 0.004 ± 0.0099 | 0.005 ± 0.03 |
| BT:sIL-6 | 0.0525 ± 0.019 | 0.029 ± 0.0028 | 0.0215 ± 0.039 | 0.0605 ± 0.036 | 0.0075 ± 0.0064 | -0.0525 ± 0.00071 | -0.006 ± 0.037 | 0.0005 ± 0.0092 | -0.0105 ± 0.11 | -0.018 | -0.009 ± 0.024 | -0.265 ± 0.067 | -0.0085 ± 0.042 | 0.008 ± 0.055 | -0.033 ± 0.023 | -0.001 ± 0.025 | -0.034 ± 0.073 | -0.296 ± 0.036 |
| BF4T:tPA | -0.046 ± 0.013 | -0.0635 ± 0.023 | -0.0465 ± 0.012 | -0.0025 ± 0.0092 | 0.005 ± 0.0042 | 0.0475 ± 0.053 | 0.0025 ± 0.022 | -0.0105 ± 0.016 | -0.004 ± 0.0014 | -0.119 | -0.122 ± 0.02 | -0.068 ± 0.018 | 0.0095 ± 0.0078 | -0.019 ± 0.0099 | -0.0095 ± 0.019 | -0.0055 ± 0.016 | -0.013 ± 0.021 | 0.0095 ± 0.029 |
| LPS:CD106/VCAM-1 | -0.029 ± 0.013 | -0.05 ± 0.013 | -0.053 ± 0.0099 | 0.01 | -0.0195 ± 0.005 | -0.026 ± 0.016 | -0.025 ± 0.027 | 0.011 ± 0.013 | 0.002 ± 0.037 | -0.041 | -0.0045 ± 0.011 | -0.023 ± 0.031 | -0.0235 ± 0.011 | -0.0135 ± 0.012 | -0.011 ± 0.013 | -0.033 ± 0.023 | -0.041 ± 0.016 | -0.023 ± 0.02 |
| LPS:SRB | 0.0015 ± 0.0021 | -0.005 ± 0.0014 | 0.004 ± 0.0042 | 0.019 ± 0.023 | 0.0125 ± 0.035 | 0.007 ± 0.024 | -0.0065 ± 0.0021 | -0.0015 ± 0.011 | -0.0015 ± 0.0078 | 0.012 | -0.015 ± 0.014 | -0.117 ± 0.019 | -0.0075 ± 0.0064 | 0.0015 ± 0.012 | 0.003 ± 0.0014 | -0.005 ± 0.0014 | -0.0105 ± 0.005 | -0.0005 ± 0.0092 |
| BE3C:CD54/ICAM-1 | -0.016 | 0 ± 0.0014 | 0.019 ± 0.04 | 0.0035 ± 0.0035 | 0.004 ± 0.013 | 0.0105 ± 0.011 | 0.016 ± 0.027 | 0.006 ± 0.0099 | 0.0075 ± 0.0092 | 0.001 | -0.0075 ± 0.0064 | -0.102 ± 0.0064 | 0.002 ± 0.0071 | -0.002 ± 0.017 | 0.0075 ± 0.025 | 0.0055 ± 0.019 | -0.013 ± 0.016 | 0.0065 ± 0.0021 |
| LPS:CD62E/E-Selectin | 0.002 ± 0.011 | 0 ± 0.011 | 0.019 ± 0.014 | 0.0035 ± 0.022 | -0.0105 ± 0.018 | -0.0095 ± 0.012 | -0.009 ± 0.033 | -0.005 | -0.009 ± 0.0071 | -0.024 | -0.0755 ± 0.047 | 0.061 ± 0.016 | 0.0025 ± 0.0035 | 0.003 ± 0.02 | 0.038 ± 0.031 | 0.001 ± 0.018 | -0.013 ± 0.011 | -0.014 ± 0.0071 |
| BT:PBMC Cytotoxicity | 0.011 ± 0.018 | -0.0035 ± 0.035 | -0.021 ± 0.079 | -0.024 ± 0.0014 | -0.042 ± 0.0099 | -0.0045 ± 0.029 | 0.002 ± 0.033 | 0.005 ± 0.035 | 0.006 ± 0.0057 | 0.035 | 0.0005 ± 0.025 | -0.0515 ± 0.037 | -0.0035 ± 0.039 | -0.019 ± 0.04 | -0.022 ± 0.016 | 0.017 ± 0.025 | 0.011 ± 0.037 | -0.082 ± 0.03 |
| SAg:CD69 | -0.01 ± 0.027 | -0.025 ± 0.016 | -0.0295 ± 0.032 | 0.0135 ± 0.015 | -0.003 ± 0.0014 | -0.0125 ± 0.005 | 0.022 ± 0.0042 | 0.0105 ± 0.011 | 0.0215 ± 0.0035 | -0.026 | -0.128 ± 0.02 | -0.166 ± 0.0085 | -0.009 ± 0.021 | -0.02 ± 0.018 | -0.015 ± 0.0028 | -0.0215 ± 0.011 | -0.0205 ± 0.0092 | -0.0045 ± 0.0064 |
| BF4T:CD90 | -0.0205 ± 0.018 | -0.019 ± 0.0099 | -0.0035 ± 0.021 | -0.011 ± 0.0085 | -0.018 ± 0.021 | -0.0075 ± 0.005 | -0.008 ± 0.0042 | -0.004 ± 0.0028 | -0.0035 ± 0.0021 | -0.059 | -0.014 ± 0.0085 | -0.062 ± 0.027 | 0.0005 ± 0.013 | -0.002 ± 0.018 | -0.0035 ± 0.0035 | 0.0015 ± 0.0064 | -0.011 ± 0.0014 | 0.0035 ± 0.0092 |
| BF4T:MMP-9 | -0.0255 ± 0.0064 | -0.0215 ± 0.012 | -0.021 ± 0.042 | 0.0085 ± 0.022 | 0.01 ± 0.047 | 0.02 ± 0.052 | 0.015 ± 0.061 | 0.0075 ± 0.049 | 0.0205 ± 0.033 | -0.059 | -0.0225 ± 0.0021 | -0.146 ± 0.039 | -0.0075 ± 0.025 | -0.0125 ± 0.025 | 0.005 ± 0.0071 | -0.023 ± 0.016 | -0.004 ± 0.011 | 0.014 ± 0.0085 |
| BE3C:EGFR | -0.0155 ± 0.0021 | -0.015 ± 0.013 | 0.003 ± 0.025 | 0.011 ± 0.047 | -0.0005 ± 0.046 | -0.0275 ± 0.063 | 0.022 ± 0.041 | 0.0095 ± 0.033 | 0.005 ± 0.021 | -0.015 | -0.0725 ± 0.029 | -0.094 ± 0.041 | 0.009 ± 0.0099 | 0.0015 ± 0.0021 | -0.0345 ± 0.0092 | 0.0115 ± 0.0064 | 0.0035 ± 0.011 | -0.0585 ± 0.081 |
| BF4T:CCL2/MCP-1 | -0.007 ± 0.038 | -0.0265 ± 0.015 | -0.026 ± 0.041 | 0.013 ± 0.059 | 0.026 ± 0.065 | 0.0295 ± 0.13 | 0.0025 ± 0.023 | -0.0115 ± 0.032 | 0.019 ± 0.061 | -0.172 | -0.097 ± 0.018 | -0.306 ± 0.093 | -0.0225 ± 0.00071 | -0.009 ± 0.0028 | -0.0185 ± 0.005 | 0.0155 ± 0.015 | -0.014 ± 0.028 | 0.0285 ± 0.015 |
| BE3C:CXCL11/I-TAC | -0.019 ± 0.011 | -0.0115 ± 0.013 | 0.003 ± 0.011 | -0.001 ± 0.0014 | 0.0005 ± 0.0035 | 0.005 ± 0.0099 | 0.0065 ± 0.012 | -0.002 ± 0.0042 | 0.0015 ± 0.0021 | 0.024 | -0.01 | -0.28 ± 0.011 | 0.0285 ± 0.015 | 0.0105 ± 0.046 | 0.021 ± 0.031 | 0.027 ± 0.0057 | 0.011 ± 0.017 | 0.008 ± 0.0099 |
